Experimental data as given in article PMC5826917, “A small molecule inhibitor of Nicotinamide N-methyltransferase for the treatment of metabolic disorders” (Scientific Reports, 2018).

Legend:
[1] = target: Muscarinic Receptor 1 (CHRM1) (Homo sapiens, UniProt P11229); experiment: Selectivity panel: CHRM1; type: cell-based
Description: (§1) Supplement 41598_2018_22081_MOESM1_ESM.docx, table 2: Supplementary table 2: Selectivity profile of JBSNF-000088 (at 10 µM) vs a panel of 34 receptors, channels and enzymes. | column: E% (agonistic); I% (antagonistic or inhibitory)

[2] = target: Histamine Receptor 1 (H1) (Homo sapiens, UniProt P35367); experiment: Selectivity panel: H1; type: cell-based
[3] = in vitro; conditions: human, Caco-2
[4] = target: T1, NNMT (Homo sapiens, UniProt P40261); experiment: biochemical; parameters: The full length NNMT proteins (1–264 amino acids) of human & mouse; 6 × His tag (N); TEV cleavage site (ENLYFQG) (N); made in house; host or cells: E. coli Rosetta2(DE3)pLysS
T1 sequence (P40261 1-264): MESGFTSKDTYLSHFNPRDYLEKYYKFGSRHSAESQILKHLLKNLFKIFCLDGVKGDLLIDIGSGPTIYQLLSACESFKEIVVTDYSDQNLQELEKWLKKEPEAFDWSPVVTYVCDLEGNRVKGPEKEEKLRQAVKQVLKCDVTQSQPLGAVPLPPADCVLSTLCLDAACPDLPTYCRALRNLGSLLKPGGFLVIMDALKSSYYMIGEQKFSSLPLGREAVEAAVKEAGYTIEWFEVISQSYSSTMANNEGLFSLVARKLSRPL
Description: PE-Sciex API-4000 triple quadrupole (PerkinElmerSciex Instruments, Boston, MA) mass spectrometer was employed for this analysis. […] Detection of the ions was performed in the multiple reaction monitoring (MRM) mode, monitoring the transition of the m/z 137 precursor ion to the m/z 92 product ion for MNA and m/z 141 precursor ion to the m/z 84 product ion for d4-MNA (internal standard).
The supernatant was separated and transferred to pre-labeled HPLC vials and analyzed by LC-MS/MS system.
The final assay reaction mixture contained a buffer of 100 mM Tris Hcl pH 7.5, 0.04% BSA, 2 mM dithiothreitol and 1% DMSO.

[5] = in vitro; conditions: human, microsomes, Metabolic stability human microsomes (% remaining)
[6] = 0.5 h
[7] = target: Dopamine Transporter (Homo sapiens, UniProt Q01959); experiment: Selectivity panel: dopamine transporter; type: binding; conditions: read-out: I% (antagonistic or inhibitory), Dopamine Transporter
Description: (§2) Supplement 41598_2018_22081_MOESM1_ESM.docx, table 2: Supplementary table 2: Selectivity profile of JBSNF-000088 (at 10 µM) vs a panel of 34 receptors, channels and enzymes. | column: I% (antagonistic or inhibitory)

[8] = target: Nicotinic AChR alpha4 beta2 (nAChRa4b2) (Homo sapiens, UniProt P17787+P43681); experiment: Selectivity panel: nAChRa4b2; type: binding; conditions: read-out: I% (antagonistic or inhibitory), nAChRa4b2
Description: as §2

[9] = test system: Ca2+ Channel (L-Type DHP Site); experiment: Selectivity panel: Ca2+ channel; type: binding; conditions: 10 µM
[10] = target: Serotonin Receptor 1A (5HT1A) (Homo sapiens, UniProt P08908); experiment: Selectivity panel: 5HT1A; type: cell-based
Description: as §1

[11] = target: T2, monkey NNMT (mkNNMT) (Macaca mulatta, UniProt F7ERX8); experiment: Fluorescence based NNMT enzymatic assay (monkey); conditions: fluorescence based biochemical assay
T2 construct: made in house
Description: NNMT activity was measured with the fluorescence enzymatic assay[22],[23]. MNA formed in the NNMT reaction reacts with acetophenone in the presence of KOH and formic acid and forms a fluorescent product 2, 7- naphthyridine. JBSNF-000088 was screened using human, mouse and monkey NNMT enzymes. Different concentrations of inhibitors were preincubated along with the enzyme for 30 minutes at room temperature. Reaction was initiated by addition of SAM and nicotinamide mixture (7 µM, 20 µM, 8 µM SAM and 6 µM, 20 µM, 9 µM nicotinamide for human, mouse and monkey NNMT assays respectively) for 60 minutes at 37 °C. The final assay reaction mixture contained a buffer of 100 mM Tris Hcl pH 7.5, 0.04% BSA, 2 mM dithiothreitol and 1% DMSO. At the end of the incubation, the reaction was stopped by the addition of ethanol: acetophenone mix (75% ethanol: 25% acetophenone) and 5 M potassium hydroxide prepared with 50% ethanol. The reaction was incubated for 15 minutes following which 100 µL of 60% formic acid was added. […] The fluorescent product 2, 7- naphthyridine was measured using a Tecan reader with excitation at 375 nm and emission at 430 nm. The IC50 values were determined by fitting the inhibition curves (percent inhibition versus inhibitor concentration) using a four parametric sigmoidal dose response using GraphPad Prism software.

[12] = target: adrenergic, alpha-1A-, receptor (ADRA1A) (Homo sapiens, UniProt P35348); experiment: Selectivity panel: ADRA1A; type: cell-based
Description: as §1

[13] = target: Norepinephrin (Noradrenalin) Transporter (Homo sapiens, UniProt P23975); experiment: Selectivity panel: norepinephrine transporter; type: binding; conditions: read-out: I% (antagonistic or inhibitory), Norepinephrin (Noradrenalin) Transporter
Description: as §2

Chain of Serotonin Receptor 1A (5HT1A) (P08908 whole entry): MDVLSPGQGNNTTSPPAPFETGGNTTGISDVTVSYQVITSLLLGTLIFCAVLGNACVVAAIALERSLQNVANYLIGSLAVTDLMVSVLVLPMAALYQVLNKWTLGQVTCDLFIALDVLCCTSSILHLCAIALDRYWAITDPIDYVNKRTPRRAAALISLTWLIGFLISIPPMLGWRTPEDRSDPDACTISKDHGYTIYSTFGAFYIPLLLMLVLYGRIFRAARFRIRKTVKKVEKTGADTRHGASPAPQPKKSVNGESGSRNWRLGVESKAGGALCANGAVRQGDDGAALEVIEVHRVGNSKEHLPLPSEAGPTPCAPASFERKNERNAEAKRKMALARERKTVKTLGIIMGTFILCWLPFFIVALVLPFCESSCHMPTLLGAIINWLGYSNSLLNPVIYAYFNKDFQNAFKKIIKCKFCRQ
Chain of Histamine Receptor 1 (H1) (P35367 whole entry): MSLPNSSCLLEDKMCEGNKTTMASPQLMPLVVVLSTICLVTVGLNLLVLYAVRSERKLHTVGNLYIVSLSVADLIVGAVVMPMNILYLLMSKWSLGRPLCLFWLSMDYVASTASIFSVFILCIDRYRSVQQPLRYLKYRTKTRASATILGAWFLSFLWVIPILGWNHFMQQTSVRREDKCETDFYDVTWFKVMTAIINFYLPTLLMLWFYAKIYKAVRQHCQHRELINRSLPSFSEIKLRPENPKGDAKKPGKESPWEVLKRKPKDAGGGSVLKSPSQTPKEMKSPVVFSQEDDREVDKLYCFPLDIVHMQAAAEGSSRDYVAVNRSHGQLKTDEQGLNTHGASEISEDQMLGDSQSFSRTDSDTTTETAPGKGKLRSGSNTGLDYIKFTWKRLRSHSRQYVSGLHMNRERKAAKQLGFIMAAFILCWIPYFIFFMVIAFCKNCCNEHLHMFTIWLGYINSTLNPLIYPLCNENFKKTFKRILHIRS
Chain of Muscarinic Receptor 1 (CHRM1) (P11229 whole entry): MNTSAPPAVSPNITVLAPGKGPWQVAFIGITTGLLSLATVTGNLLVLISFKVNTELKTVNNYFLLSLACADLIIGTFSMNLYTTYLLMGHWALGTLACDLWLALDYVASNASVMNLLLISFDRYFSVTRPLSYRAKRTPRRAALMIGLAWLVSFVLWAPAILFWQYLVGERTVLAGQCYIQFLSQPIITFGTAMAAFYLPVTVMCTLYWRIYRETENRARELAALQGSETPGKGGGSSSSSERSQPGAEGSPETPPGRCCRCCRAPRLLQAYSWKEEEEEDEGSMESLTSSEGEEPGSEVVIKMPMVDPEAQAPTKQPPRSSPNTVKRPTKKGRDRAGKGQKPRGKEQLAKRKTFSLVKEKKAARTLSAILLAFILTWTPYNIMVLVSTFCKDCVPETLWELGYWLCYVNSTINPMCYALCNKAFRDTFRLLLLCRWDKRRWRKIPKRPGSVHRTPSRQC
Chain of adrenergic, alpha-1A-, receptor (ADRA1A) (P35348 whole entry): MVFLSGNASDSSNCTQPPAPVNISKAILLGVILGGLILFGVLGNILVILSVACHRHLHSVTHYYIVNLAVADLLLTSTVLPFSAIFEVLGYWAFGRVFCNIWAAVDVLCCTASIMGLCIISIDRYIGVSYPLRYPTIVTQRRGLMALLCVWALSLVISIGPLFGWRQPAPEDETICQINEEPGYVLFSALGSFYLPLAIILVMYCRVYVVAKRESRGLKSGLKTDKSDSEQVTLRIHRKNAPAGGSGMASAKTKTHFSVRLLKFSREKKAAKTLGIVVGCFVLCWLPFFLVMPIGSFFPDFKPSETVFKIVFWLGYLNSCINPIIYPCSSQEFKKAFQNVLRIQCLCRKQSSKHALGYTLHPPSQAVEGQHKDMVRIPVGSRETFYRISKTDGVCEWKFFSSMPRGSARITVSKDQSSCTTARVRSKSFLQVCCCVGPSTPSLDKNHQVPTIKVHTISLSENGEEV
Chain of Norepinephrin (Noradrenalin) Transporter (P23975 whole entry): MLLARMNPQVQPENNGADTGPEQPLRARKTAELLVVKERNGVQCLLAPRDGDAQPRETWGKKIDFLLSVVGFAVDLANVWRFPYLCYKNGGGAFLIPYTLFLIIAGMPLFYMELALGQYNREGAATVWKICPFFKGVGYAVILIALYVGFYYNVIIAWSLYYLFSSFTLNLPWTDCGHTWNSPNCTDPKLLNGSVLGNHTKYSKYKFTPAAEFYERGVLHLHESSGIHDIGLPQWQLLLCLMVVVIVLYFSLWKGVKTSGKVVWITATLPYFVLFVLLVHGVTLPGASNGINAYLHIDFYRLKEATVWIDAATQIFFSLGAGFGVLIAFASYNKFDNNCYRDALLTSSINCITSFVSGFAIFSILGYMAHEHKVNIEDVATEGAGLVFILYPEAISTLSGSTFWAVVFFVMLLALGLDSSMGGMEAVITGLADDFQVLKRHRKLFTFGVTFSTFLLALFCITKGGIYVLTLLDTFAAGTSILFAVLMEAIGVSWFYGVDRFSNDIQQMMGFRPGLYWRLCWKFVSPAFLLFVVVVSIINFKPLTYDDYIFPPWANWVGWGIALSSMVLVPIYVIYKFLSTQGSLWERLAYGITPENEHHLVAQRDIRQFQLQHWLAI
Chain of Nicotinic AChR alpha4 beta2 (nAChRa4b2) (P43681 29-627 limits assumed): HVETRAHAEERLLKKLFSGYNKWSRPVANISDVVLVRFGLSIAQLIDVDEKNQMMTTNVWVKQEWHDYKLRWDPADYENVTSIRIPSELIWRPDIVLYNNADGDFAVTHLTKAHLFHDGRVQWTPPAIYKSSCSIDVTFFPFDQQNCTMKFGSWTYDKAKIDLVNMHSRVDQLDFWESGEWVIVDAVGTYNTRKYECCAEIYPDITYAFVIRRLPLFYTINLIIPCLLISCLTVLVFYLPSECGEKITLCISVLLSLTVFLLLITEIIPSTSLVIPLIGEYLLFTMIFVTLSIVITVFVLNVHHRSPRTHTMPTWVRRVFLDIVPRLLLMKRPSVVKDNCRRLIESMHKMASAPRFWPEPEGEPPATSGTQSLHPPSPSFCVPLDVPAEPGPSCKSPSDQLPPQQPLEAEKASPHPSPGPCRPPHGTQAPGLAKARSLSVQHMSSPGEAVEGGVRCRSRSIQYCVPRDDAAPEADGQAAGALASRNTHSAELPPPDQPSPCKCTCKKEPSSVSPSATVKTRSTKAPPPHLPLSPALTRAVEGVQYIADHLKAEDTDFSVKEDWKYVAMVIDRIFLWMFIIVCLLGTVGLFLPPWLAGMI
Chain of Nicotinic AChR alpha4 beta2 (nAChRa4b2) (P17787 26-502): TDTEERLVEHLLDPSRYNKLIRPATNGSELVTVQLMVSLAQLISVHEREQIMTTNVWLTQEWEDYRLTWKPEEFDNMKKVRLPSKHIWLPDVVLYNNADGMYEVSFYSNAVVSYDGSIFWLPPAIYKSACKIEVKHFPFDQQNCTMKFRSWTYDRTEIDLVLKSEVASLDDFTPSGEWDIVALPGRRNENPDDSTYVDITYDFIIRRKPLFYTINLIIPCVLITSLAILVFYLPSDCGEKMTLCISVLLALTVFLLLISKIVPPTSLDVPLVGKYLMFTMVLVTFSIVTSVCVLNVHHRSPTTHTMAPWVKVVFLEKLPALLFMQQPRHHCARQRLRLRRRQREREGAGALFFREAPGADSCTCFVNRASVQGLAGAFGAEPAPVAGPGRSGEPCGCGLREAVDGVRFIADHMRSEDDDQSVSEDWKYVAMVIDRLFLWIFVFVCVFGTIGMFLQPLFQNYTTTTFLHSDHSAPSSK
T2 sequence (F7ERX8 1-264): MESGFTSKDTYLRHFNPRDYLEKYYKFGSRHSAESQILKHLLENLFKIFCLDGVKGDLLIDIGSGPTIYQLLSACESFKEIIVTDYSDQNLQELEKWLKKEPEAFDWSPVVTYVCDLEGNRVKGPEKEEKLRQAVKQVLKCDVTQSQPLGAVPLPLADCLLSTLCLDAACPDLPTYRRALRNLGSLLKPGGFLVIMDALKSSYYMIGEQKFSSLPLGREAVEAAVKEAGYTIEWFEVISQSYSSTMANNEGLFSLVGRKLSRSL
Chain of Dopamine Transporter (Q01959 whole entry): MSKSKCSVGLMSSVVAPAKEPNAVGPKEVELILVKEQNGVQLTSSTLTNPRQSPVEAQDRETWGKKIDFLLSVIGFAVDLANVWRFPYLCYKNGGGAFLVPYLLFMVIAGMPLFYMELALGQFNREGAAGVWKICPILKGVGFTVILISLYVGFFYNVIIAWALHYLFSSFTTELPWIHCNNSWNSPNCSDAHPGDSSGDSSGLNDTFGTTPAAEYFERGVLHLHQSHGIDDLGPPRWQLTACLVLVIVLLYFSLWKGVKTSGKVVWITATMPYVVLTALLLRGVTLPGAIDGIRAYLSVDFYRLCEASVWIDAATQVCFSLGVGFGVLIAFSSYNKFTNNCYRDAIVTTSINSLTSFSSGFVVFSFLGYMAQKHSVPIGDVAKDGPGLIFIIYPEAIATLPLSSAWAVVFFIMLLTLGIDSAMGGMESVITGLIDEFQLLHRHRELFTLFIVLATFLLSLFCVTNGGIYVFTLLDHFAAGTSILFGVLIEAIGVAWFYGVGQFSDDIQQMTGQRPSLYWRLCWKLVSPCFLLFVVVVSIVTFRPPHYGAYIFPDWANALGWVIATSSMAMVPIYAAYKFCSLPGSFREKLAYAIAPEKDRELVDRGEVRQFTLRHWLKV

Structure (SMILES): COc1ccc(C(N)=O)cn1 [JBSNF-000088, 6-methoxynicotinamide]
- E% (agonistic), CHRM1 ([1]; 10 µM): -3%
- inhibition at 10 µM ([1]; read-out: I% (antagonistic or inhibitory), CHRM1): -7%
- E% (agonistic), H1 ([2]; 10 µM): -2%
- inhibition at 10 µM ([2]; read-out: I% (antagonistic or inhibitory), H1): -5%
- Papp [3]: 25.2 ×10⁻⁶ cm/s
- efflux ratio [3]: 1.04
- IC50 [4]: 2400 nM
- remaining at 0.5 h [5]: > 70%
- Metabolic stability human microsomes (% remaining) [6]: 90%
- inhibition at 10 µM [7]: 7%
- inhibition at 10 µM [8]: 5%
- I% (antagonistic or inhibitory), Ca2+ Channel (L-Type DHP Site) [9]: 0%
- E% (agonistic), 5HT1A ([10]; 10 µM): 5%
- inhibition at 10 µM ([10]; read-out: I% (antagonistic or inhibitory), 5HT1A): -13%
- IC50 [11]: 2800 nM
- E% (agonistic), ADRA1A ([12]; 10 µM): -2%
- inhibition at 10 µM ([12]; read-out: I% (antagonistic or inhibitory), ADRA1A): -3%
- inhibition at 10 µM [13]: 9%
